Key:
[1] = target: Triosephosphate isomerase (G233D HsTIM) (Homo sapiens, UniProt P60174, G233D); experiment: coupled enzyme assay, Kmapp vs PEP at varied GAP; format: biochemical
[2] = target: Triosephosphate isomerase (WT HsTIM) (Homo sapiens, UniProt P60174); experiment: coupled enzyme assay, Kmapp vs PEP at varied GAP; format: biochemical
Sequence of Triosephosphate isomerase (WT HsTIM) (P60174 2-249): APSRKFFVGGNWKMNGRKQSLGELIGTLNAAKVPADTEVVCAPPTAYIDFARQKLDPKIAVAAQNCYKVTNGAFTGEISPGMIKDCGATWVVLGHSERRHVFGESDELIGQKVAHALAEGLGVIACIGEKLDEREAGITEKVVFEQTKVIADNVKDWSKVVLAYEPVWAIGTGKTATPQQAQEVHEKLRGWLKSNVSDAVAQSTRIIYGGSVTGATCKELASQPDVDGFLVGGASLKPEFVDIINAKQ

Sequence of Triosephosphate isomerase (G233D HsTIM) (P60174 2-249 G233D): as the sequence (P60174 2-249) above, with G232D counted along it

Ki [1]: 120 ± 5.2 µM | Ki [2]: 123 ± 5 µM
Structure (SMILES): C=C(OP(=O)(O)O)C(=O)O [phosphoenolpyruvate]

Source: PMC5652080 (Current Enzyme Inhibition, 2015)
